Laboratory results as given in patent publication US6475751B2, “Scintillation proximity assay for type II fatty acid biosynthetic enzymes” (Virginia Commonwealth University, priority 2000, dated 2002).
Where two headings read alike, the source gives them in different places.

Tests used:
[1] = target: T1, S. glaucescens His6-KASIII (Streptomyces glaucescens, UniProt Q54206); test: KASIII scintillation proximity assay (SPA); format: biochemical
T1 construct: His6 (N); made in house; host or cells: Escherichia coli BL21 (DE3 pLysE)/pLH14
T1 sequence (Q54206 1-333): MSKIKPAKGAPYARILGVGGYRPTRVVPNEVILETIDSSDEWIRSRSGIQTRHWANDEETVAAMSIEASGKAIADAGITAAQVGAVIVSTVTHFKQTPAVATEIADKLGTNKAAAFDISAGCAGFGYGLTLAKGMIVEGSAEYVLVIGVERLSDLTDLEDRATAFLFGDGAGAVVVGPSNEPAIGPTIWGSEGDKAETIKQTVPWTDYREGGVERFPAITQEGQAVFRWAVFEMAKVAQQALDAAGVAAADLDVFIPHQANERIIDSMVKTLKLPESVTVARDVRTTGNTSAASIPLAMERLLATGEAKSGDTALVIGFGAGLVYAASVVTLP
Experimental: (§1) The standard reaction mixture contained the following components in a final volume of […]: S. glaucescens His6-KASIII […], 100 mM imidazole, pH 7.0, 2.6 μM BMACP (MACP), [^3H] acetyl-CoA 0.6 μM (0.24 μCi, specific activity 20 Ci/mmol). The reaction was initiated by adding [^3H] acetyl-CoA and incubated at 30 ° C. for 10 minutes.
(§2) For the KASIII SPA, the reaction was terminated by the sequential addition of 100 μl of 100% ethanol (which denatures the KASIII) and 50 μl of the SPA bead solution (10 mg/ml). The mixture was then incubated for 2 hr at 23° C. with gentle shaking. After allowing the beads to settle the sealed OptiPlate (Packard, Meriden, Conn.) was counted using a TopCount (Packard) set up in SPA mode. A background signal was obtained by carrying out the assay in absence of KASIII. This background signal was subtracted from KASIII SPA signals.
(§3) In all inhibitor studies, the inhibitor was first dissolved in DMSO and preincubated with enzyme for 15 minutes at 23° C., prior to addition of substrate. The final DMSO concentration in each of these assays remained below 1%.
The apparent Km for MACP with the S. glaucescens KASIII was determined using the standard TCA precipitation assay with the following modifications: tritiated acetyl-CoA at a final concentration of 13.3 μM (0.4 μCi, specific activity 1 Ci/mmol ) was incubated at 30° C. for 5 min with various concentrations of MACP (0.39-18.7 μM) in a volume of 30 μl. The apparent Km for BMACP with the S. glaucescens KASIII was determined in SPA format. Tritiated acetyl-CoA at a final concentration of 7.5 μM (0.6 μCi, specific activity 4 Ci/mmol) was incubated at 30° C. for 9 min with various BMACP concentrations (0.28 to 9 μM).

[2] = target: T1, S. glaucescens His6-KASIII; settings: cited from earlier work
[3] = target: T1, S. glaucescens His6-KASIII; test: KASIII TCA precipitation assay; format: biochemical
Experimental: as §1
(§4) In the KASIII TCA precipitation assay, the reaction was quenched by the addition of 200 μl ice cold 10% TCA, incubated on ice for 10 min and centrifuged at 13,000 g for 10 min. The supernatant was discarded and the pellet was resuspended with another 200 μl of cold TCA and centrifuged. The pellet bound ^3H labeled product was dissolved in 2% SDS, 20 mM NaOH and quantitated by liquid scintillation counting. The Escherichia coli KASIII assay was performed in the same manner except that the incubation time was reduced to 2 minutes, and 0.13 μg of protein and 0.4 μM MACP (BMACP) were used in the assay.
In all inhibitor studies, the inhibitor was first dissolved in DMSO and preincubated with enzyme for 15 minutes at 23° C., prior to addition of substrate. The final DMSO concentration in each of these assays remained below 1%. […]

E. coli KASIII [4] = target: T2, E. coli KASIII (Escherichia coli, UniProt P0A6R0); test: KASIII TCA precipitation assay; format: biochemical
T2 sequence (P0A6R0 whole entry): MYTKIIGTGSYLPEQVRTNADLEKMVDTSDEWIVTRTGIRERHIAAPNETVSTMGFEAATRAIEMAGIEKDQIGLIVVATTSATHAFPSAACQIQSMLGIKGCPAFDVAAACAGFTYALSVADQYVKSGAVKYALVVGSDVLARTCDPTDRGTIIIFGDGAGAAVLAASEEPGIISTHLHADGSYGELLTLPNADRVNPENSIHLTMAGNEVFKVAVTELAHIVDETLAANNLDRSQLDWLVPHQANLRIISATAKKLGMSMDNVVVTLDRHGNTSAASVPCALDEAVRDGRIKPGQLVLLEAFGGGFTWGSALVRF
Experimental: as §1, §4, §3

E. coli KASIII [5] = target: T2, E. coli KASIII; test: KASIII scintillation proximity assay (SPA); format: biochemical
Experimental: as §1, §2
as §4, with “The Escherichia coli KASIII assay was performed in the same manner except that the incubation time was reduced to 2 minutes, and 0.13 μg of protein and 0.4 μM MACP (BMACP) were used in the assay.” left out

Question: For `C[S+](C)[O-]` [DMSO, Dimethyl Sulfoxide], which “reduction in the SPA signal” value ([1]; DMSO concentration of 10% v/v) is on record?
Answer: ~50%

Question: What about the “decrease in the SPA signal” value ([1]; DMSO concentrations below 1.5% v/v) of the same molecule?
Answer: no significant decrease

Question: With `CC(=O)SCCNC(=O)CCNC(=O)[C@H](O)C(C)(C)COP(=O)(O)OP(=O)(O)OC[C@H]1O[C@@H](n2cnc3c(N)ncnc32)[C@H](O)[C@@H]1OP(=O)(O)O` [acetyl-CoA] as the molecule, how does the Km ([2]; previous analyses using a TCA-precipitation assay, read-out: Km for acetyl-CoA) read?
Answer: 3 µM

Question: And the Km ([1]; SPA, suggested by linear relationship over 0-1.6 μM substrate, read-out: Km for acetyl-CoA)?
Answer: > 1.6 µM

Question: With `NC(=O)CI` [iodoacetamide, Iodoacetamide, reference compound] as the molecule, how does the IC50 [1] read?
Answer: 15 ± 1 µM

Question: What about the IC50 ([3]; TCA precipitation assay, inhibitor preincubated with enzyme 15 minutes at 23° C.) of the same molecule?
Answer: 25 ± 3 µM

Question: Which IC50 (E. coli KASIII [4]) does the source give for `C=C/C(C)=C/[C@@]1(C)SC(=O)C(C)=C1O` [thiolactomycin] here?
Answer: 160 ± 14 µM

Question: And the IC50 (E. coli KASIII [5])?
Answer: 124 ± 14 µM

Question: Which Km ([2]; previously determined using a TCA precipitation assay, read-out: Km previously determined) does the source give for “BMACP: Biotinylated Malonyl-Acyl Carrier Protein, prepared by biotinylation of MACP using NHS-biotin; KASIII substrate” here?
Answer: 3.7 µM

Question: And the Km ([1]; SPA format, 7.5 μM tritiated acetyl-CoA, 30° C., 9 min, read-out: Km (apparent) for substrate)?
Answer: 7.2 ± 2.6 µM

Question: Which Km ([3]; TCA-based assay, 13.3 μM tritiated acetyl-CoA, 30° C., 5 min, read-out: Km (apparent) for substrate) does the source give for “MACP: Malonyl-Acyl Carrier Protein generated from Escherichia coli ACP and malonyl-CoA; KASIII substrate” here?
Answer: 6.1 ± 0.4 µM
